From patent publication US4607023A, “Natriuretic” (L'Institut de Recherches Cliniques de Montreal, priority 1983, dated 1986)
Entries after “also recorded” stand apart in the source; their conditions may differ. Bridge positions count the residues as written; N and C are the ends.

Tests used:
[1] = tested on: female Sprague-Dawley rats; assay: Natriuretic and diuretic bioassay: urinary Na+ excretion after i.v. bolus in anesthetized rats; format: in vivo, rat; details: for natriuretic activity, comparison in words (FIG. 12): 15 to 1350 pmoles i.v. bolus, change of Na+ excretion per 20 min, at least four rats per dose
Method: Diuretic and natriuretic activities of the ANFs are determined by the method of Garcia et al., (1982) Experientia 38, 1071-1073 and of Thibault et al., (1983) Hypertension 5, (Suppl. I), 75-80, both cited above, in female Sprague-Dawley rats (180-200 g) anesthetized with pentobarbital (60 mg/kg i.p.) equipped with a bladder catheter and an intrajugular vein catheter. The animals receive an infusion of 5% dextrose (3 ml/hr) for 45 minutes before the assay and during the evaluation period. Urine is collected in pre-weighed vials for 20 minute intervals. Following a basal collection period the ANFs to be assayed are injected as a bolus of 1 ml in Krebs solution pH 7.4 via the intrajugular vein catheter, urine is collected for a 20 minute period, and sodium concentrations are determined by flame photometry. Results are expressed as μEq of Na^+ for the collection period of 20 minutes from which the sodium excretion of the control period has been subtracted (ΔμEq Na^+ /20 min), and specific activity is defined as ΔμEq Na^+ /20 min/mg of protein. Protein is measured by the Bradford assay, see Spector, T. (1978) Anal. Biochem. 86, 142-146, with bovine albumin as a standard except for substantially pure ANFs where the amount of peptide is estimated from the amino acid sequencer.
Generally, in the purification procedures described above, unless otherwise specified all procedures are carried out at 4° C. At the end of each chromatographic step the material is lyophilized and then stored at -20° C. until used. For small volume (<6 ml) lyophilization is carried out in polystyrene tubes (1.5×7 cm) in a Savant Speed Vac concentrator. Larger volumes in the first steps are lyophilized in glass flasks. For subsequent steps, samples are dissolved in 1 to 3 ml of 0.01M ammonium acetate, pH 5.0, and aliquots are taken for the biological assay (Garcia et al., (1982) Experientia 38, 1071-1073, cited above) which are done in duplicate.
Generally, in the purification procedures discussed above, unless otherwise specified all procedures were carried out at 4° C. At the end of each chromatographic step the material was lyophilized and then stored at -20° C. until used. For small volume (<6 ml) lyophilization was carried out in polystyrene tubes (1.5×7 cm) in a Savant Speed Vac concentrator. Larger volumes in the first steps were lyophilized in glass flasks. For subsequent steps, samples were dissolved in 1 to 3 ml of 0.01M ammonium acetate, pH 5.0. Aliquots were taken for the biological assay (Garcia et al. (1982) Experientia 38, 1071-1073) which were done in duplicate. Proteins were measured by the Bradford assay (Spector, T. (1978) Anal. Biochem. 86, 142-146) with bovine albumin as a standard except in the last step where the amount of peptides was estimated from the amino acid sequencer.
The natriuretic activities of native ANF(2-33), ANF(3-33) and synthetic ANF(8-33) acid or amide forms were determined by a biological assay (Garcia, R., Cantin, M., Thibault, G., Ong, H. and Genest, J. (1982) Experientia 38: 1071-1073; Thibault, G., Garcia, R., Cantin, M., and Genest, J. (1983) Hypertension 5 (Suppl. I): 75-83), both references cited above. Female Sprague-Dawley rats (180-200 g) were used as bioassay animals. They were anesthetized with pentobarbital (60 mg/kg i.p.) and a bladder catheter and an intrajugular vein catheter were installed. The animals received a 5% (W/V) dextrose infusion (2.1 ml/hr) 30 minutes before the assay and during the evaluation period. Urine was collected in preweighed vials for 20-minute intervals. After a basal collection period, the ANF peptides (native ANF(2-33) or (3-33) or synthetic (8-33) acid or amide forms; 15 to 1350 pmoles) were injected in a bolus injection in 1 ml of Krebs solution, pH 7.4. Each dose was injected in at least four rats. The sodium concentration was measured by a flame photometer. The results are expressed in terms of change of Na^+ excretion per 20 min±SEM.

[2] = tested on: rabbit renal arteries (helical vascular strips); assay: Vasorelaxant activity in vitro on norepinephrine-contracted rabbit renal artery strips; format: cell-based; details: 0.25 μg peptide added to the bath 5 min before the cumulative NE curve; p<0.01
Method: The vasorelaxant activities of the ANFs of this invention are determined in vitro by means of a procedure involving the use of mammalian vascular strips. Briefly, healthy rabbits are anesthetized with sodium pentobarbital (30 mg/kg i.v.), their renal arteries are rapidly excised, fat and connective tissure are trimmed off, and the arterial issue is helically cut. The helical strips thus obtained are mounted between a fixed base and a force displacement transducer, immersed in a bath of continuously oxygenated Krebs solution at 37° C. and pH 7.4, and a tension of 500-700 mg is applied to the strip of arterial tissue. L-Norepinephrine bitartrate (NE) is added to the bath to obtain concentrations of NE ranging from 3.9×10^-6 to […], the contractions elicited by NE are registered on a polygraph, and a cumulative dose-response curve is established. Once a standard curve is reproducible it is repeated five minutes after having added 0.25 μg of the respective ANF to the bath. […]
For each arterial strip a cumulative dose-response curve to NE (L-norepinephrine bitartrate, Sigma Chemicals) ranging from 3.9×10^-6 to 1.6×10^-2 mM was obtained. […] The contraction elicited for each dose of NE is expressed as a percent of the maximum response.
Results are expressed as mean ±SEM. […]

[3] = native peptide peaks after last step, CN μBondapak column, high molecular weight region, rat bioassay

Substance	natriuretic activity, comparison in words (FIG. 12) [1]	specific activity (natriuretic) [1, 3]	diuretic and natriuretic activity, general statements in words ([1]; rat bioassay)	specific activity of the material recovered (natriuretic) ([1]; after CN μBondapak reverse phase HPLC, partial inactivation of the peptide)	specific activity (natriuretic) ([1]; material at the Mono S column step, fractions 40 to 44 minutes, low molecular weight region)	vasorelaxant activity: displacement of the norepinephrine dose-response curve (FIG. 13) [2]
H-Ala-Gly-Pro-Arg-Ser-Leu-Arg-Arg-Ser-Ser-Cys-Phe-Gly-Gly-Arg-Ile-Asp-Arg-Ile-Gly-Ala-Gln-Ser-Gly-Leu-Gly-Cys-Asn-Ser-Phe-Arg-Tyr-OH (H-AGPRSLRRSSCFGGRIDRIGAQSGLGCNSFRY-OH; disulfide 11-27; ends not checked) [ANF(2-33), native rat atrial natriuretic factor of 32 amino acid residues]	slightly higher than that of the above compounds; also recorded: slightly higher than that of the other forms	–	–	–	–	–
H-Leu-Ala-Gly-Pro-Arg-Ser-Leu-Arg-Arg-Ser-Ser-Cys-Phe-Gly-Gly-Arg-Ile-Asp-Arg-Ile-Gly-Ala-Gln-Ser-Gly-Leu-Gly-Cys-Asn-Ser-Phe-Arg-Tyr-OH (H-LAGPRSLRRSSCFGGRIDRIGAQSGLGCNSFRY-OH; disulfide 12-28; ends not checked) [ANF(1-33), native rat atrial natriuretic factor of 33 amino acid residues, disulfide bridge Cys12-Cys28]	–	297,000 μEq of Na^+ excreted/20 min/mg	biologically active	–	–	–
H-Arg-Arg-Ser-Ser-Cys-Phe-Gly-Gly-Arg-Ile-Asp-Arg-Ile-Gly-Ala-Gln-Ser-Gly-Leu-Gly-Cys-Asn-Ser-Phe-Arg-Tyr-OH (H-RRSSCFGGRIDRIGAQSGLGCNSFRY-OH; disulfide 5-21; ends not checked) [ANF(8-33), native rat atrial natriuretic factor of 26 amino acid residues]	–	450,000 μEq of Na^+ excreted/20 min/mg	more active than ANF(3-33) or ANF(1-33)	–	–	–
H-Gly-Pro-Arg-Ser-Leu-Arg-Arg-Ser-Ser-Cys-Phe-Gly-Gly-Arg-Ile-Asp-Arg-Ile-Gly-Ala-Gln-Ser-Gly-Leu-Gly-Cys-Asn-Ser-Phe-Arg-Tyr-OH (H-GPRSLRRSSCFGGRIDRIGAQSGLGCNSFRY-OH; disulfide 10-26; ends not checked) [ANF(3-33), native rat atrial natriuretic factor of 31 amino acid residues]	comparable natriuretic activities	–	biologically active	84,000 μEq Na^+ excreted/20 min/mg	131,000 μEq of Na^+ excreted/20 min/mg	displacing the response to norepinephrine (NE) to the right
